In patent US20240246940A1, “HETEROARYL DERIVATIVE COMPOUND AND USE THEREOF” (VORONOI INC., priority 2021, published 2024):

tested on: SK-BR-3 cells (HER2 overexpressing cell line); test: SK-BR-3 cell proliferation inhibitory activity (CellTiter-Glo, 120 hours); type: cell-based; conditions: Homo sapiens
Description: (§1) To evaluate the cell proliferation inhibitory activity of the compound according to the present invention on HER2 and EGFR kinases, the following method was performed using HER2 overexpressing cell lines (SK-BR-3, BT-474, and N-87) and EGFR expressing cell line (HaCaT).
(§2) McCOY'S 5A supplemented with 10% FBS was used for SK-BR-3 cells, RPMI-1640 medium supplemented with 20% FBS was used for BT-474 cancer cells, and RPMI-1640 medium supplemented with 10% FBS was used for N-87 cancer cells. DMEM supplemented with 10% FBS was used for HaCaT cells.
(§3) For SK-BR-3 cells, 5000 cells were aliquoted into each well of a white clear bottom 96 well plate (Corning) 48 hours before treatment with the compounds of Examples. For BT-474 cells, 5000 cells were aliquoted into each well of a white clear bottom 96 well plate (Corning) 48 hours before treatment with the compounds of Examples. For N-87 cells, 5000 cells were aliquoted into each well of a white clear bottom 96 well plate (Corning) 24 hours before treatment with the compounds of Examples. For HaCaT cells, 3000 cells were aliquoted into each well of a white clear bottom 96 well plate (Corning) 24 hours before treatment with the compounds of Examples. For SK-BR-3 cells and BT-474 cells, the compounds of Examples were diluted in dimethyl sulfoxide (three-fold dilution, a total of 11 concentrations) and injected each in an amount of 1 μl to a final concentration of 0.2 nM to 10 μM. For N-87 cells, the compounds of Examples were diluted in dimethyl sulfoxide (five-fold dilution, a total of 11 concentrations) and injected each in an amount of 0.5 μl to a final concentration of […] to 5 μM. For HaCaT cells, the compounds of Examples were diluted in dimethyl sulfoxide (three-fold dilution, a total of 11 concentrations) and injected each in an amount of 0.5 μl to a final concentration of 0.8 nM to 45 μM. For the measurement of living cells, the cells were stored at room temperature for 10 minutes using CellTiter-Glo cell viability reagent (Promega) after a certain period of time (SK-BR-3: 120 hours, BT-474: 120 hours, N-87: 72 hours, and HaCaT: 72 hours) post treatment with the compounds of Examples, and the luminescence intensity thereof was measured using a reader (SynergyNeo, Biotek). Each test was repeated three times.
(§4) The result values were calculated as a cell growth rate (%) compared to those of the control group. A graph was created using the GraphPad Prism version 5.0 program, and GI50 values were calculated.

Row | Structure (SMILES) | GI50 [nM]
1 | C=CC(=O)N1CC(Oc2cc3c(Nc4cc(-c5cccnc5)ccc4OC)ncnc3cc2OC)C1 [Example 6, 1-(3-((7-methoxy-4-((2-methoxy-5-(pyridin-3-yl)phenyl)amino)quinazolin-6-yl)oxy)azetidin-1-yl)prop-2-en-1-one] | 150 to 1000
2 | C=CC(=O)N1CC(Oc2cc3c(Nc4cc(-c5ccc(F)cc5)ccc4OC)ncnc3cc2OC)C1 [Example 7, 1-(3-((4-((4′-fluoro-4-methoxy-[1,1′-biphenyl]-3-yl)amino)-7-methoxy-quinazolin-6-yl)oxy)azetidin-1-yl)prop-2-en-1-one] | ≤ 150
3 | C=CC(=O)N1CC(Oc2cc3c(Nc4cc(-c5ccn6ncnc6c5)ccc4OC)ncnc3cc2OC)C1 [Example 30, 1-(3-((4-((5-([1,2,4]triazolo [1,5-a]pyridin-7-yl)-2-methoxyphenyl)amino)-7-methoxy-quinazolin-6-yl)oxy)azetidin-1-yl)prop-2-en-1-one] | 150 to 1000
4 | C=CC(=O)N1CC(Oc2cc3c(Nc4cc(-c5cccs5)ccc4OC)ncnc3cc2OC)C1 [Example 43, 1-(3-((7-methoxy-4-((2-methoxy-5-(thiophen-2-yl)phenyl)amino)quinazolin-6-yl)oxy)azetidin-1-yl)prop-2-en-1-one] | ≤ 150
5 | C=CC(=O)N1CC(Oc2cc3c(Nc4cc(-c5ccco5)ccc4OC)ncnc3cc2OC)C1 [Example 44, 1-(3-((4-((5-(furan-2-yl)-2-methoxyphenyl)amino)-7-methoxy-quinazolin-6-yl)oxy)azetidin-1-yl)prop-2-en-1-one] | ≤ 150
6 | C=CC(=O)N1CC(Oc2cc3c(Nc4cc(-c5ccoc5)ccc4OC)ncnc3cc2OC)C1 [Example 45, 1-(3-((4-((5-(furan-3-yl)-2-methoxyphenyl)amino)-7-methoxy-quinazolin-6-yl)oxy)azetidin-1-yl)prop-2-en-1-one] | ≤ 150
7 | C=CC(=O)N1CC(Oc2cc3c(Nc4cc(-c5cncs5)ccc4OC)ncnc3cc2OC)C1 [Example 46, 1-(3-((7-methoxy-4-((2-methoxy-5-(thiazol-5-yl)phenyl)amino)quinazolin-6-yl)oxy)azetidin-1-yl)prop-2-en-1-one] | 150 to 1000
8 | C=CC(=O)N1CC(Oc2cc3c(Nc4cc(-c5ccsc5)ccc4OC)ncnc3cc2OC)C1 [Example 47, 1-(3-((7-methoxy-4-((2-methoxy-5-(thiophen-3-yl)phenyl)amino)quinazolin-6-yl)oxy)azetidin-1-yl)prop-2-en-1-one] | ≤ 150

Now from value to compound:

Row | GI50 [nM] | Structure (SMILES)
9 | ≤ 150 | C=CC(=O)N1CC(Oc2cc3c(Nc4cc(-c5ccccc5)ccc4OC)ncnc3cc2OC)C1 [Example 5, 1-(3-((7-methoxy-4-((4-methoxy-[1,1′-biphenyl]-3-yl)amino)quinazolin-6-yl)oxy)azetidin-1-yl)prop-2-en-1-one]
10 | 150 to 1000 | C=CC(=O)N1CC(Oc2cc3c(Nc4cc(-c5cnc6ccnn6c5)ccc4OC)ncnc3cc2OC)C1 [Example 32, 1-(3-((7-methoxy-4-((2-methoxy-5-(pyrazolo[1,5-a]pyrimidin-6-yl)phenyl)amino)quinazolin-6-yl)oxy)azetidin-1-yl)prop-2-en-1-one]
11 | ≤ 150 | C=CC(=O)N1CC(Oc2cc3c(Nc4cc(-c5ccc6occc6c5)ccc4OC)ncnc3cc2OC)C1 [Example 37, 1-(3-((4-((5-(benzofuran-5-yl)-2-methoxyphenyl)amino)-7-methoxy-quinazolin-6-yl)oxy)azetidin-1-yl)prop-2-en-1-one]
12 | 150 to 1000 | C=CC(=O)N1CC(Oc2cc3c(Nc4cc(-c5ccnn5C)ccc4OC)ncnc3cc2OC)C1 [Example 42, 1-(3-((7-methoxy-4-((2-methoxy-5-(1-methyl-1H-pyrazol-5-yl)phenyl)amino)quinazolin-6-yl)oxy)azetidin-1-yl)prop-2-en-1-one]

tested on: HaCaT cells (EGFR expressing cell line); test: HaCaT cell proliferation inhibitory activity (CellTiter-Glo, 72 hours); type: cell-based; conditions: Homo sapiens
Description: as §1, §2, §3, §4

Row | Structure (SMILES) | GI50 [nM]
13 | C=CC(=O)N1CCC(Oc2cc3c(Nc4cc(-c5ccc(C)o5)ccc4OC)ncnc3cc2OC)CC1 [Example 86, 1-(4-((7-methoxy-4-((2-methoxy-5-(5-methylfuran-2-yl)phenyl)amino)quinazolin-6-yl)oxy)piperidin-1-yl)prop-2-en-1-one] | 150 to 1000
